Measured values: the SangsterLogP compilation

Test: method code SF-AS, from DOI: 10.1016/0378-5173(79)90126-1
Conditions: pH 3.5

| logD | SMILES |
| --- | --- |
| 1.45 | CCOC(=O)C(CC)(CC)C(=O)NC(N)=O |
| 1.75 | CNC(=O)NC(=O)C(C)(C(=O)OC)C1C=CCCC1 (stereo not given) |
| 1.99 | CCC(CC)(C(=O)NC(N)=O)C(=O)OC(C)C |
| 1.58 | CCC(C(=O)NC(N)=O)(C(=O)OC)c1ccccc1 (stereo not given) |

More lines, now with the values behind:

| SMILES | logD |
| --- | --- |
| CCC(CC)(C(=O)NC(N)=O)C(=O)OCc1ccccc1 | 2.74 |
| CCNC(=O)NC(=O)C(C)(C(=O)OC)C1=CCCCC1 (stereo not given) | 2.25 |
| CCC(CC)(C(=O)NC(N)=O)C(=O)OC | 0.95 |
| CNC(=O)NC(=O)C(C)(C(=O)OCOC)C1=CCCCC1 (stereo not given) | 1.8 |
| CCC(CC)(C(=O)NC(N)=O)C(=O)OCC(=O)OC | 0.99 |
| C=CCC(CC=C)(C(=O)NC(N)=O)C(=O)OC | 1.37 |
